Data on seven compounds can be found in article PMC10481538, “Bioanalytical method validation and application to a phase 1, double-blind, randomized pharmacokinetic trial of a standardized Centella asiatica (L.) Urban water extract product in healthy older adults” (Frontiers in Pharmacology, 2023).

“Also recorded” adds a separate entry of the source. Like-named read-outs stand apart in the source and are kept apart here.

Data set [1] in a line: Analyte storage stability in human plasma.
Method: (§5) Analytes were mixed with 50 µL of charcoal treated plasma (n = 5) or urine (n = 5) and placed in each of the following storage conditions: 1) long-term storage (two weeks at −80°C); 2) three freeze-thaw cycles during a two-week period stored at −80°C; 3) 4°C for 24 h; and 4) fresh preparation for same day analysis. All samples were processed together for analysis. Calibration curves generated from storage condition 4 samples were used to determine the concentration of analyte present in each storage condition. The percent difference from samples in condition 4 was used to determine stability.
Data set [2] in a line: Analyte storage stability in human urine.
Method: as §5
The next data set is described as follows: clinical. As to conditions: for AUC(0-t): AUC(0-12). The method, then: (§1) To each sample of participant plasma or urine, A. aerogenes sulfatase (2.5 µL; 10–20 units/mL), and E. coli glucuronidase (2.5 µL; ∼5,000–50,000 units/mL) were used to release the analytes from their sulfate and β-D-glucuronic acid esters (Phase II metabolites). For calibration and validation samples, aqueous glycerol (5 µL) was added to mimic the enzymatic hydrolysis. For all analyses, 1% ascorbic acid (10 µL) was added prior to sample work up to limit oxidation. Samples were incubated (37°C) for 20 min and placed on ice to halt enzymatic activity. […] The supernatant was filtered (0.22 µm spinfilter) at 10,000 g for 5 min at 4°C and used for analysis. To optimize peak shape during analysis, the concentration of organic solvent (sample filtrate) was adjusted to a 60:40 ratio with HPLC grade water for TT analysis and a 90:10 ratio with 1% aqueous formic acid for CQA analysis.
(§2) HPLC-MS/MS was performed at the Oregon Health & Science University’s (OHSU) Bioanalytical Shared Resource/Pharmacokinetics Core (Portland, OR, United States). […] Chromatographic separation was achieved using a Poroshell 120 EC18 column (3 mm id × 50 mm; 2.7 µ) and a Poroshell ultra high-performance liquid chromatography (UHPLC) guard column (3.0 mm i.d. Å∼ 5 mm, 2.7 μ) (Agilent, Santa Clara, CA, United States). The injection volume was 20 μL and flow rate was 0.42 mL/min. Gradient elution was performed using a mobile phase of solvent A (water containing 10 mM ammonium acetate and 0.02% ammonium hydroxide; pH 8.5) and solvent B (methanol). […] Chromatographic separation was achieved using a Zorbax Eclipse plus C8 Rapid resolution (4.6 i.d. Å∼ 150 mm, 3.5 μ) column with a Zorbax Eclipse plus C8 Rapid resolution (4.6 i.d. Å∼ 12.5 mm, 5 μ) guard column (Agilent, Santa Clara, CA, United States). The injection volume was 5 μL and flow rate of 0.8 mL/min. Gradient elution was performed using a mobile phase of solvent A (water containing 0.05% v/v acetic acid) and solvent B (acetonitrile with 0.05% v/v acetic acid).
(§3) Briefly, two in-person study visits occurred a minimum of two weeks and a maximum of four weeks apart in which participants orally consumed 2 or 4 g of CAP (in a randomized order) on an empty stomach. Total study duration was eight weeks including follow-up adverse event monitoring. All study procedures were identical for each visit except for the CAP dose administered. Randomization (to prevent tolerance effects) was performed using an arm equivalence design by the OHSU Research Pharmacy. All study personnel were blind to randomization allocation until all data analysis had been finalized. […] Participants fasted for 10 h, excluding water, prior to each study visit and for 2 h after consuming the study intervention to standardize gastrointestinal transit time and minimize food effects. During study visits, participants were provided low-phytochemical snacks and meals by the OCTRI CTRC’s Bionutrition Unit devoid of the foods outlined in Section 2.5. At each study visit, a peripheral intravenous catheter was placed in the arm to allow for repeat blood sampling. Prior to CAP intake, 20 mL of baseline blood and 50 mL of baseline urine were collected. […] Plasma aliquots (2 mL) were frozen and stored at -80°C until analysis. […] A 50 mL aliquot was retained and frozen at −80°C for renal excretion analysis.
(§4) Sample preparation and analysis: Plasma and urine sample preparation and analyte quantification by LC-MS/MS were performed in duplicate for each time point and visit (Sections 2.2–2.4). Due to the possibility of residual interference from the participant’s diet and unique, individual matrix effects, calibration curves were generated for each participant using their baseline plasma collected at the corresponding visit.

For data set [3] the following is noted: n = 7, mean (SEM). The method, then:
as §1, §2, §3, §4

The conditions of data set [4]: encapsulated ECa 233, healthy adults; ref Songvut et al., 2019; cited from earlier work.
[5] abbreviates: condition 1 long-term storage at -80°C, low concentration.
Where [6] appears, read: condition 2 three freeze-thaw cycles, low concentration.
Where [7] appears, read: condition 1 long-term storage at −80°C, low concentration.
The mark [8] stands for this setting: condition 1 long-term storage at −80°C, medium concentration.
Setting [9] is: condition 2 freeze-thaw, medium concentration.
Where [10] appears, read: condition 2 three freeze-thaw cycles, medium concentration.
[11] abbreviates: condition 2 freeze-thaw, low concentration.
Where [12] appears, read: both, human, plasma, po, 2 g, single oral 2 g CAW (CAP), n = 7, mean (SEM).
Setting [13] is: both, human, plasma, po, 2 g, Cmax, single oral 2 g CAW (CAP), healthy older adults, n = 7, plasma, mean (SEM), ^ = below LLoQ.
[14] abbreviates: both, human, plasma, po, 2 g, T1/2, single oral 2 g CAW (CAP), n = 7, mean (SEM).
Where [15] appears, read: both, human, plasma, po, 2 g, Tmax, single oral 2 g CAW (CAP), n = 7, mean (SEM).
Setting [16] is: both, human, plasma, po, 4 g, single oral 4 g CAW (CAP), n = 7, mean (SEM).
[17] abbreviates: both, human, plasma, po, 4 g, Cmax, single oral 4 g CAW (CAP), healthy older adults, n = 7, plasma, mean (SEM), ^ = below LLoQ.
The mark [18] stands for this setting: both, human, plasma, po, 4 g, T1/2, single oral 4 g CAW (CAP), n = 7, mean (SEM).
The mark [19] stands for this setting: both, human, plasma, po, 4 g, Tmax, single oral 4 g CAW (CAP), n = 7, mean (SEM).
Where [20] appears, read: single oral 2 g CAW (CAP), n = 7, mean (SEM).
The mark [21] stands for this setting: single oral 4 g CAW (CAP), n = 7, mean (SEM).
Where [22] appears, read: condition 3 4°C for 24 h, medium concentration.
Setting [23] is: condition 3 overnight storage at 4°C, low concentration.

For the compound `COc1cc(CCC(=O)O)ccc1O` [DHFA, Dihydroferulic acid], the “Stability, percent of nominal concentration” value (“Stability, percent” for short) in data set [1] (setting [5]) was determined as 81%; in data set [1] (setting [6]), 97%; in data set [2] (setting [7]) it was 79%; in data set [2] (setting [8]) it was 67%; in data set [2] (setting [9]), 84%. Further, in the data set “clinical” (both, human, in vivo, po), the “AUC(0-12)” value was 41.0 (12.7) ng/mL*hr. Further, the Cmax in the data set “clinical” (both, human, in vivo, po) was 8.1 (2.9) ng/mL; in the data set “clinical” (both, human, in vivo, po, Cmax), 9.3 ng/mL. Moreover, the T1/2 in the data set “clinical” (both, human, in vivo, po) is reported as 6.6 (3.8) hr. Besides, the Tmax in the data set “clinical” (both, human, in vivo, po) is 5.7 (1.5) hr; in “clinical” (both, human, in vivo, po, Tmax), 5.9 h. In addition, the AUC(0-t) in “clinical” (both, human, in vivo, po) stood at 35.6 ng·h/mL. The half-life in “clinical” (both, human, in vivo, po, T1/2) is 7.1 h.

`COc1ccc(/C=C/C(=O)O)cc1O` [IFA, isoferulic acid]: the “Stability, percent” value was 117% in data set [1] (setting [10]); 84% in data set [2] (condition 1 long-term storage at −80°C, high concentration); “less than 115%” in data set [2] (setting [11]); 80% in data set [2] (setting [9]). Also, the AUC(0-t) turned out to be 5.3 ng·h/mL in the data set “clinical” (setting [12]) and 7.4 ng·h/mL in “clinical” (setting [16]). Besides, the Cmax in “clinical” (setting [13]) and in “clinical” (setting [17]) was 1.5 ng/mL in each case. The results for the half-life in “clinical” (setting [14]) and in “clinical” (setting [18]) were 7 h and 3.5 h, respectively. Moreover, the Tmax in “clinical” (setting [15]) was determined as 2.4 h. The “Total urinary excretion (12 hr)” value in data set [3] (single oral 2 g CAW (CAP)) is 65.9 (23.1) µg.

Take `O=C(O)CCc1cccc(O)c1` [HPP, 3-(3-hydroxyphenyl) propionic acid]: the “Stability, percent” value in data set [2] (setting [7]) was determined as 48%; in data set [2] (setting [8]), 81%; in data set [2] (setting [11]), 96%. Besides, the values for the AUC(0-t) in the data set “clinical” (setting [12]) and in “clinical” (setting [16]) were 56.8 ng·h/mL and 50.2 ng·h/mL, respectively. The Cmax amounted to 5.8 ng/mL in the data set “clinical” (setting [13]) and 10.6 ng/mL in the data set “clinical” (setting [17]). Moreover, the half-life in “clinical” (setting [14]) is 5 h; in “clinical” (setting [18]), 2.6 h. For the same compound, the Tmax in the data set “clinical” (setting [15]) turned out to be 7.4 h; in “clinical” (setting [19]), 5.7 h. Further, the figures for the “Total urinary excretion (12 hr)” value in data set [3] (single oral 2 g CAW (CAP)) and in data set [3] (single oral 4 g CAW (CAP)) were 223.4 (76.7) µg and 247.9 (73.6) µg, respectively.

Regarding `COc1cc(/C=C/C(=O)O)ccc1O` [FA, ferulic acid], the “Stability, percent” value is listed as 129% in data set [1] (setting [5]) and 81% in data set [2] (setting [7]). Also, the Cmax in the data set “clinical” (single oral 2 g CAW (CAP), healthy older adults, n = 7, plasma, mean (SEM), ^ = below LLoQ) is 1.5 (0.3) ng/mL; in “clinical” (single oral 4 g CAW (CAP), healthy older adults, n = 7, plasma, mean (SEM), ^ = below LLoQ) it was 1.5 (0.6) ng/mL. Also, the “AUC(0-12)” value in the data set “clinical” (setting [20]) is reported as 11.3 (2.9) ng/mL*hr; in the data set “clinical” (setting [21]) it was 9.9 (2.8) ng/mL*hr. For the same compound, the values for the T1/2 in “clinical” (setting [20]) and in “clinical” (setting [21]) were 14.1 (3.9) hr and 2.9 (1.3) hr, respectively. The Tmax was 5.9 (1.3) hr in “clinical” (setting [20]) and 7.1 (1.2) hr in the data set “clinical” (setting [21]). Further, the “Total urinary excretion (12 hr)” value is given as 146.8 (33.5) µg in data set [3] (single oral 2 g CAW (CAP)) and 137.4 (24.6) µg in data set [3] (single oral 4 g CAW (CAP)).

Regarding `O=C(O)CCc1ccc(O)c(O)c1` [DHCA, Dihydrocaffeic acid], the “Stability, percent” value in data set [1] (setting [5]) was 75%; in data set [1] (condition 1 long-term storage at -80°C, medium concentration), 75%; in data set [1] (condition 2 three freeze-thaw cycles, high concentration), 75%; in data set [1] (setting [10]), 51%; in data set [1] (setting [22]), 23%; in data set [2] (setting [7]), 70%. The “Stability, percent” value in data set [2] (setting [23]) turned out to be 106%. Besides, the AUC(0-t) was 1.7 ng·h/mL in “clinical” (setting [12]) and 1.9 ng·h/mL in the data set “clinical” (setting [16]). Moreover, the Cmax in “clinical” (setting [13]) amounted to 0.4 ng/mL; in the data set “clinical” (setting [17]), 0.5 ng/mL. The half-life is 1.8 h in the data set “clinical” (setting [14]) and 1.9 h in the data set “clinical” (setting [18]). Moreover, the Tmax in “clinical” (setting [15]) worked out at 6.1 h; in the data set “clinical” (setting [19]) it was 3.2 h. The “Total urinary excretion (12 hr)” value in data set [3] (single oral 2 g CAW (CAP)) is 26.8 (10.0) µg; in data set [3] (single oral 4 g CAW (CAP)), 24.8 (6.1) µg.

For the compound madecassoside [MS], the “Stability, percent” value is given as 57% in data set [2] (setting [7]); 84% in data set [2] (setting [8]); 82% in data set [2] (condition 2 freeze-thaw, high concentration); 78% in data set [2] (setting [9]). Further, the Tmax in data set [4] was 1 to 2 h. For the same compound, the Detection in plasma result in “clinical” (after 2 or 4 g CAP, oral) is “not detected; also recorded: below the LoD”. Besides, the “Total urinary excretion (12 hr)” value in data set [3] (single oral 2 g CAW (CAP)) and in data set [3] (single oral 4 g CAW (CAP)) was “Not detected” throughout.

Consider `O=C(O)/C=C/c1ccc(O)c(O)c1` [CA, caffeic acid], for which the “Stability, percent” value in data set [1] (setting [6]) was 108%; in data set [1] (condition 3 4°C for 24 h, low concentration) it was 63%; in data set [1] (setting [22]) it was 75%; in data set [2] (setting [7]), 211%; in data set [2] (setting [9]) it was 129%; in data set [2] (setting [23]), 224%. Also, the “Stability, percent” value in data set [2] (condition 3 overnight storage at 4°C, medium concentration) is reported as 86%. For the same compound, in “clinical” (both, human, in vivo, po), the “AUC(0-12)” value was 2.4 (0.6) ng/mL*hr. In addition, in the data set “clinical” (both, human, in vivo, po), the T1/2 was 10.3 (3.7) hr. In addition, the Tmax was 4.5 (1.6) hr in “clinical” (both, human, in vivo, po) and 5.3 h in “clinical” (both, human, in vivo, po, Tmax). Moreover, in the data set “clinical” (both, human, in vivo, po), the AUC(0-t) was 1.8 ng·h/mL. In the data set “clinical” (both, human, in vivo, po, Cmax), the Cmax worked out at 0.5 ng/mL. The same compound showed a half-life in the data set “clinical” (both, human, in vivo, po, T1/2) of 8.4 h.
